Experimental findings from PubChem BioAssay (NCI) are described below.

Molecules are shown by their SMILES. Several values for one entry are separate records, joined by “and”; a condition that tells them apart may be missing. Equal values may be shown once.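 Dose response: 5 concentrations. Exposure: 48 h. Format: 96-well plates. Endpoint: linear interpolation; highest concentration if not reached. The concentration for 50% growth inhibition is given as GI50. TGI is the concentration that stops growth completely.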

Holding throughout (assay): inhibition of tumour cell growth, NCI panel, 48 h
Assay [1] deals with HCC-2998 colon.
For assay [2], the system named is DU-145 prostate.
The subject of assay [3] is SK-MEL-2 melanoma.
Assay [4] deals with OVCAR-8 ovarian.
The subject of assay [5] is SF-295 CNS.
Assay [6] deals with U251 CNS.
The test system of assay [7] is SR leukemia.
Assay [8] concerns HT29 colon.
The subject of assay [9] is 786-0 renal.
The test system of assay [10] is MDA-MB-435.

In the case of `C=CN(C)S(C)(=O)=O`, the GI50 in [1], in [2], in assay [3], in assay [4], in assay [5] and in assay [6] was greater than 100 µM throughout. The GI50 in [7], in assay [8], in [9] and in assay [10] was greater than 100 µM throughout. Also, the TGI in assay [1], in assay [2], in [3], in assay [4], in assay [5] and in assay [6] was greater than 100 µM each time. The TGI in [7], in assay [8], in assay [9] and in assay [10] was greater than 100 µM each time.
As to `COc1cc(-c2ncn(/C=C\C(=O)OC(C)C)n2)cc(C(F)(F)F)c1`, the GI50 in assay [1] was 0.102 µM and 0.659 µM; in assay [2], 0.238 µM and 0.2 µM; in assay [3], 0.0676 µM and 0.0501 µM; in [4] it was 0.045 µM and 0.031 µM; in assay [5] it was 0.0891 µM and 0.196 µM; in [6], 0.0335 µM and 0.0683 µM. Moreover, the GI50 is 0.0354 µM in assay [7]; 0.0474 µM and 0.0896 µM in assay [8]; 0.101 µM and 0.098 µM in assay [9]; 0.0437 µM and 0.0485 µM in [10]. For the same molecule, the TGI was 1.41 µM and 3.82 µM in assay [1]; 12.5 µM and 11.7 µM in [2]; 1.53 µM and 0.489 µM in assay [3]; 11.4 µM and 1.41 µM in assay [4]; 14.1 µM and 11.8 µM in assay [5]; 5.24 µM and 11.4 µM in assay [6]. The TGI in assay [7] is 14.3 µM and > 100 µM; in assay [8] it was 12.3 µM and 3.01 µM; in assay [9] it was 2.61 µM and 3.25 µM; in assay [10] it was 0.702 µM and 0.457 µM.
`CCc1ccc2c(c1)N(CCO)C1=C(C(=O)OC1)C2c1cccc(Cl)c1` (stereo not given): the GI50 is 1.35 µM in [1]; 1.67 µM in assay [2]; 0.371 µM in assay [3]; 1.32 µM in assay [4]; 0.382 µM in [5]; 0.499 µM in assay [6]. In addition, the GI50 in assay [7] is 0.445 µM; in [8], 0.345 µM; in [9] it was 0.736 µM; in assay [10], 0.195 µM. The TGI was 9.25 µM in assay [1]; 13.5 µM in assay [2]; 16.2 µM in assay [3]; 26.8 µM in [4]; 15.5 µM in [5]; 15.5 µM in [6]. The TGI is greater than 100 µM in assay [7], 11.1 µM in [8], 19 µM in [9] and 0.787 µM in assay [10].
In the case of `O=C(Nc1nc2ccc(F)cc2s1)c1cccnc1Nc1ccc(Cl)cc1`, the GI50 in assay [1] was 2.73 µM; in assay [2], 3.76 µM; in assay [3] it was 2.11 µM; in assay [4], 6.26 µM; in assay [5], 1.98 µM; in [6], 2.88 µM. The GI50 in assay [7] was 2.28 µM; in assay [8], 3.1 µM; in assay [9], 2.93 µM; in [10], 3.11 µM. In addition, the TGI was greater than 100 µM in assay [1]; greater than 100 µM in assay [2]; 6.45 µM in [3]; greater than 100 µM in assay [4]; 7.83 µM in assay [5]; greater than 100 µM in assay [6]. Moreover, the TGI in assay [7] was 9.31 µM; in assay [8], greater than 100 µM; in assay [9], greater than 100 µM; in assay [10] it was greater than 100 µM.
